Measurements published in PMC6985712 (Antimicrobial Agents and Chemotherapy, 2020).
Like-named read-outs stand apart in the source and are kept apart here.

Key:
KPC-2 [1] = target: T1, KPC-2 (Klebsiella pneumoniae, UniProt Q9F663); assay: k2/K inactivation constant, reporter substrate method; type: biochemical
Method: Inactivation kinetic parameters were determined by using the reporter substrate method for the slow tight-binding inhibitor kinetic scheme ([38]). E + I ↔K EI ↔k−2k2 EI*
(§1) Protein was quickly mixed with 100 μM nitrocefin and various concentrations of BLI in reaction buffer, and the absorbance at 490 nm was measured immediately every 2 s for 180 s on a SpectraMax plate reader (Molecular Devices, San Jose, CA) at 37°C. The resulting progression curves of OD490 versus time at various BLI concentrations were imported into Prism software (GraphPad, San Diego, CA), and pseudo first-order rate constants kobs were calculated by using the following equation: P = Vs ⋅ (1 – e^–^k^obs ⋅ ^t)/kobs, where Vs is the enzyme NCF cleavage rate in the absence of BLI.

AmpC [2] = target: T2, AmpC (Enterobacter cloacae, UniProt P05364); assay: koff of enzyme activity recovery, jump dilution method; type: biochemical; details: calculated using k2/K and koff
T2 construct: His tag; purchased Emerald Biostructures (Bainbridge Island, WA)
Method: (§2) After appropriate dilution, 100 μM NCF was added to the reaction mixture, and absorbance at 490 nm was recorded every 10 s using a plate reader. The reaction without the addition of BLI was also recorded and used to calculate uninhibited enzyme velocity Vs.
(§3) Purified enzyme at 1 μM in reaction buffer was mixed with BLIs at an 8-fold higher concentration than its stoichiometry ratio (determined in preliminary stoichiometry experiments). After 30 min incubation at 37°C, the reaction mixture was diluted from 100- to 30,000-fold depending on the enzyme in reaction buffer, and 100 μl of diluted enzyme was mixed with 100 μl of 400 μM NCF in reaction buffer. The absorbance at 490 nm was recorded every minute during 4 h at 37°C.

KPC-2 [3] = target: T1, KPC-2; assay: as above; type: biochemical; details: calculated using k2/K and koff
Method: as §2, §3

BKC-1 [4] = target: T3, BKC-1 (Klebsiella pneumoniae, UniProt A0A0F6QEY8); assay: as above; type: biochemical; details: calculated using k2/K and koff
Method: as §2, §3

CTX-M-15 [5] = target: T4, CTX-M-15 (Escherichia coli, UniProt Q9EXV5); assay: as above; type: biochemical; details: calculated using k2/K and koff
T4 construct: His tag; purchased Emerald Biostructures (Bainbridge Island, WA)
Method: as §2, §3

KPC-3 [6] = target: T5, KPC-3 (Klebsiella pneumoniae, UniProt Q9F663, H272Y); assay: as above; type: biochemical
Method: as §2, §3

FRI-1 [7] = target: T6, FRI-1 (Enterobacter cloacae, UniProt A0A0M5L4T8); assay: as above; type: biochemical; details: calculated using k2/K and koff
Method: as §2, §3

SME-2 [8] = target: T7, SME-2 (Serratia marcescens, UniProt P52682, V207Q); assay: Kiapp determination with nitrocefin (method of Waley); type: biochemical, S. marcescens; details: recombinant His-tagged enzyme; 10 min incubation at 37°C; 50 μM NCF
Method: (§4) The protein was mixed with various concentrations of inhibitors in 50 mM sodium phosphate (pH 7.0) and 0.1 mg/ml of bovine serum albumin buffer (reaction buffer), followed by incubation for 10 min at 37°C. Next, 50 μM nitrocefin (NCF; 10 μM for SHV-12 and 25 μM for BKC-1) was added, and substrate cleavage profiles were recorded at 490 nm every 10 s for 10 min. […] Kiapp values were calculated by method of Waley ([24]).

SHV-12 [9] = target: T8, SHV-12 (Klebsiella pneumoniae, UniProt P0AD64, E235K/G234S/L31Q); assay: Inactivation kinetic profile, reporter substrate method; type: biochemical; details: precluded k2/K calculation
T8 construct: His tag; purchased Emerald Biostructures (Bainbridge Island, WA)
Method: as §1

TEM-43 = TEM-43 (Escherichia coli, UniProt P62593, E102K/M180T/R162H); assay: as above; type: biochemical; details: precluded k2/K calculation
Method: as §1

KPC-2 [10] = target: T1, KPC-2; assay: Stability of inhibitor after incubation with KPC-2, LC/MS; type: biochemical; details: for degradation/hydrolysis of inhibitor by KPC-2: 1 µM inhibitor and 1 µM KPC-2, 37 °C, reaction buffer, 18 hours, LC/MS
SME-2 [11] = target: T7, SME-2; assay: koff of enzyme activity recovery, jump dilution method; type: biochemical, S. marcescens
Method: as §2, §3

NDM-1 = target: T9, NDM-1 (Klebsiella pneumoniae, UniProt C7C422); assay: Kiapp determination with nitrocefin (method of Waley); type: biochemical
T9 construct: His tag; purchased Emerald Biostructures (Bainbridge Island, WA)
Method: as §4

AmpC [12] = target: T2, AmpC; assay: as above; type: biochemical; details: recombinant His-tagged enzyme; 10 min incubation at 37°C; 50 μM NCF
Method: as §4

KPC-2 [13] = target: T1, KPC-2; assay: as above; type: biochemical; details: recombinant His-tagged enzyme; 10 min incubation at 37°C; 50 μM NCF
Method: as §4

VIM-1 = target: T10, VIM-1 (Pseudomonas aeruginosa, UniProt A0A0F7KYQ8); assay: as above; type: biochemical
T10 construct: His tag; purchased Emerald Biostructures (Bainbridge Island, WA)
Method: as §4

BKC-1 [14] = target: T3, BKC-1; assay: as above; type: biochemical; details: recombinant His-tagged enzyme; 10 min incubation at 37°C; 25 μM NCF
Method: as §4

CTX-M-15 [15] = target: T4, CTX-M-15; assay: as above; type: biochemical; details: recombinant His-tagged enzyme; 10 min incubation at 37°C; 50 μM NCF
Method: as §4

SHV-12 [16] = target: T8, SHV-12; assay: as above; type: biochemical; details: recombinant His-tagged enzyme; 10 min incubation at 37°C; 10 μM NCF
Method: as §4

KPC-3 [17] = target: T5, KPC-3; assay: as above; type: biochemical; details: recombinant His-tagged enzyme; 10 min incubation at 37°C; 50 μM NCF
Method: as §4

FRI-1 [18] = target: T6, FRI-1; assay: as above; type: biochemical; details: recombinant His-tagged enzyme; 10 min incubation at 37°C; 50 μM NCF
Method: as §4

OXA-23 = OXA-23 (Acinetobacter baumannii, UniProt Q9L4P2); assay: as above; type: biochemical; details: recombinant His-tagged enzyme; 10 min incubation at 37°C; 50 μM NCF
Method: as §4

CTX-M-14 = target: T11, CTX-M-14 (Escherichia coli, UniProt Q9L5C7); assay: as above; type: biochemical; details: recombinant His-tagged enzyme; 10 min incubation at 37°C; 50 μM NCF
T11 construct: His tag; purchased Emerald Biostructures (Bainbridge Island, WA)
Method: as §4

OXA-48 = target: T12, OXA-48 (Klebsiella pneumoniae, UniProt Q6XEC0); assay: as above; type: biochemical; details: recombinant His-tagged enzyme; 10 min incubation at 37°C; 50 μM NCF
T12 construct: His tag; purchased Emerald Biostructures (Bainbridge Island, WA)
Method: as §4

ADC-7, KPC-2, and SHV-1 = system: ADC-7, KPC-2, and SHV-1; design: method as in PMID 26729491, PMID 26729496; details: cited from earlier work
[19] = 1.2 nM KPC-2, 100 μM NCF reporter substrate
[20] = recombinant His-tagged enzyme, 10 min incubation at 37°C, 50 μM NCF

For `O=C(O)C[C@@H]1CC[C@H](NC(=O)Cc2cccs2)B(O)O1` [vaborbactam], the “KPC-2 inactivation kinetic profile” value (KPC-2 [1]; [19]) was “slow onset of inhibition and nonlinear reaction profiles”, the Kd (AmpC [2]) was 220 nM and the Kd (KPC-2 [3]) was 7.8 nM. The Kd (BKC-1 [4]) was 33 nM, the Kd (CTX-M-15 [5]) was 40 nM and the Kd (KPC-3 [6]) was 4.4 nM. The Kd (FRI-1 [7]) was 509 nM, the Ki (SME-2 [8]) was 42 ± 5 nM and the inactivation kinetic profile (SHV-12 [9]) was “linear inactivation profiles”. For the same molecule, the inactivation kinetic profile (TEM-43) was “linear inactivation profiles”, the “degradation/hydrolysis of inhibitor by KPC-2” value (KPC-2 [10]) was “no degradation” and the “degradation/hydrolysis of inhibitor by KPC-2” value (KPC-2 [10]; listed as Vaborbactam) was “not hydrolyzed”. The Kd (SME-2 [11]) was 47 nM, the “inhibition of enzyme (in words)” value (NDM-1; class B metalloenzyme) was “No inhibition” and the Ki (NDM-1; [20]) was greater than 160000 nM. For the same molecule, the Ki (AmpC [12]) was 35 ± 15 nM, the Ki (KPC-2 [13]) was 56 ± 15 nM and the “inhibition of enzyme (in words)” value (VIM-1; class B metalloenzyme) was “No inhibition”. The Ki (VIM-1; [20]) was greater than 160000 nM, the Ki (BKC-1 [14]) was 18 ± 2 nM and the Ki (CTX-M-15 [15]) was 30 ± 4 nM. For the same molecule, the Ki (SHV-12 [16]) was 21 ± 4 nM, the Ki (KPC-3 [17]) was 50 ± 16 nM and the Ki (FRI-1 [18]) was 170 ± 60 nM. The Ki (OXA-23) was 66000 ± 11000 nM, the Ki (CTX-M-14) was 33 ± 13 nM and the Ki (OXA-48) was 14000 ± 5000 nM.
With `O=Cc1ccccc1B(O)O` [2-formylphenylboronic acid] the “KPC-2 inactivation kinetic profile” value (KPC-2 [1]; [19]) was “linear KPC-2 inactivation profile”.
In the case of `C[C@]1(Cn2ccnn2)[C@H](C(=O)O)N2C(=O)C[C@H]2S1(=O)=O` [tazobactam, reference compound], the “KPC-2 inactivation kinetic profile” value (KPC-2 [1]; [19]) is reported as “progressive enzyme activity inactivation” and the “degradation of inhibitor by KPC-2” value (KPC-2 [10]; same conditions, in 1 hour (data not shown)) is reported as “completely degraded”.
In the case of `Cc1cccc(B(O)O)c1` [m-tolylboronic acid], the “KPC-2 inactivation kinetic profile” value (KPC-2 [1]) is reported as “linear KPC-2 inactivation profile”.
In the case of `O=C(Cc1cccs1)N[C@@H](Cn1cc(C(=O)O)nn1)B(O)O` [S02030], the “potency (in words)” value (ADC-7, KPC-2, and SHV-1) is given as “nanomolar potency”.
